{
  "source": "patent US20050004005A1",
  "about": "“Methods of treating diseases responsive to Induction of Apoptosis” (priority 2003, published 2005)",
  "key": {"[1]": {"tested_on": "caspase cascade", "experiment": "Activation of the caspase cascade and induction of apoptosis in cells (earlier Cai et al. applications)", "type": "cell-based", "details": "typically"}, "[2]": {"tested_on": "caspase cascade", "details": "as described in Ser. No. 10/164,705 and 60/433,953; cited from earlier work"}, "[3]": {"target": "T1, Tip47 (Homo sapiens, UniProt O60664, I56V/V275A)", "T1 construct": "This supernatant is T47D cytosol; endogenous in cells; host or cells: T47D breast cancer cells", "T1 sequence (O60664 1-434 I56V/V275A)": "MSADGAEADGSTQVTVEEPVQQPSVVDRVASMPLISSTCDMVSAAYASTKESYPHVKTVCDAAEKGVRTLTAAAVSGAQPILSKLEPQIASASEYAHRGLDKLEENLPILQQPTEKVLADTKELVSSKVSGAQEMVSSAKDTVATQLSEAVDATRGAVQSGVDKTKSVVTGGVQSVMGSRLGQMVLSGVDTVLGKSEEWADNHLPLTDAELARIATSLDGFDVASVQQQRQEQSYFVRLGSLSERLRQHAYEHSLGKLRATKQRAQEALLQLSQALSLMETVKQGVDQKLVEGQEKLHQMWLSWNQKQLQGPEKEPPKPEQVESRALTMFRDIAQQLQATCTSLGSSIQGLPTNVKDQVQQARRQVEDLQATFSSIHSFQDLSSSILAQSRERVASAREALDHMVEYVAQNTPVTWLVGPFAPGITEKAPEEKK", "experiment": "Photolabeling of T47D cytosol, immunoprecipitation with anti-Tip47, SDS-PAGE and autoradiography", "type": "binding", "details": "T47D cytosol labeled with 20 nM compound, UV 254 nm, anti-fibronectin as control, FIG. 1B", "description": "T47D cytosol was labeled with 20 nM 3-(3,5-ditritium-4-azidophenyl)-5-(3-chloro-thiophen-2-yl)-[1,2,4]-oxadiazole (Example 3) and immunoprecipitated with anti-fibronectin (as a control) or anti-Tip47. The immunoprecipitated complex was subject to SDS-PAGE and autoradiography.\nFor immunoprecipitations, T47D cells were first washed in PBS and then resuspended in CLB Buffer (10 mM HEPES, 10 mM NaCl, 1 mM KH2PO4, 5 mM NaHCO3, 1 mM CaCl2, 0.5 mM MgCl2, 5 mM EDTA) plus 0.1% protease inhibitor cocktail (Sigma, St. Louis, Mo.). Cells were allowed to swell in 5 minutes at room temperature and then were homogenized in a tight fitting Dounce homogenizer with 50 strokes. Lysate was spun 2,200×g, 5 minutes, at 4° C. The supernatant was then spun at 100,000×g, 40 minutes at 4° C. This resulting supernatant was called T47D cytosol. Protein concentration determined by the D/C Protein Assay (Bio-Rad, Hercules, Calif.).\n20 riM 3-(3,5-ditritium-4-azidophenyl)-5-(3-chloro-thiophen-2-yl)-[1,2,4]-oxadiazole (Example 3) (stock is 20 μM, 1 mCi/ml, 50 Ci/mmol) was added to 1 mg T47D cytosol in 1 ml CLB Buffer and incubated, rocking, for 30 minutes at room temperature. Lysates were then exposed to a Short Wave UV Source (254 nm) for 10 minutes.\nLabeled lysates were pre-cleared with 50 μl solution of Protein A Sepharose (Zymed, South San Francisco, Calif.) for 2 hours at 4° C. […]"}, "[4]": {"target": "T2, Tail Interacting Protein (Homo sapiens, UniProt O60664, I56V/V275A)", "T2 construct": "This supernatant is T47D cytosol; endogenous in cells; host or cells: T47D breast cancer cells", "T2 sequence (O60664 1-434 I56V/V275A)": "T1 sequence (O60664 1-434 I56V/V275A)", "experiment": "Photo-affinity radiolabeling of T47D cytosol, two-dimensional gel and autoradiography", "type": "binding", "details": "200 nM compound, 300 μg T47D cytosol, UV 254 nm 10 minutes", "description": "Isolation of Tail Interacting Protein from Cell Extracts by Photo-affinity Radiolabeling: T47D breast cancer cell line was grown in RPMI 1640 medium containing 25 mM Hepes and L-glutamine (Gibco) supplemented with 10% FCS and penicillin/streptomycin. 8×10^6 T47D cells in 25 mL medium were plated on a 100 mm dish and grown overnight in RPMI medium supplemented with 10% FCS and penicillin/streptomycin. Cells were scraped with Cell lifter (Fisher) into a conical tube and centrifuged for 5 minutes at 450×g. Cells were washed one time with 1 mL PBS (1,160×g for 3 minutes) and then resuspended in 0.25 mL Cell Lysis Buffer (CLB) (10 mM HEPES, pH 7.2, 10 mM NaCl, 1 mM KH2PO4, 5 mM NaHCO3, 1 mM CaCl2, 0.5 mM MgCl2, 5 mM EDTA) plus 0.1% Protease Inhibitor Cocktail (Sigma). Cells were allowed to swell 5 minutes at room temperature and then homogenized using Dounce homogenizer and Type A pestle (tight) 50 times on ice. After centrifugation at 2,200×g, for 5 minutes, 4° C., the supernatant was spun at 108,000×g, for 40 minutes at 4° C. This supernatant is T47D cytosol. Protein concentration is determined by BioRad DC assay.\n300 μg T47D cytosol in 100 μL CLB was added in the well of a 96-well plate. […]"}, "[5]": {"target": "T3, GST-Tip47 (Homo sapiens, UniProt O60664, I56V/V275A)", "T3 construct": "Full-length Tip47 cDNA was cloned into the pGEX-4T-1; made in house; host or cells: E. coli BL-21", "T3 sequence (O60664 1-434 I56V/V275A)": "T1 sequence (O60664 1-434 I56V/V275A)", "experiment": "Binding of tritiated compound to GST-Tip47 immobilized on anti-GST Protein A Sepharose, scintillation counting", "details": "2 μM compound, 1 hour room temperature, TBS pH 8.0, FIG. 1A", "description": "2 μM 3-(3,5-ditritium-4-azidophenyl)-5-(3-chloro-thiophen-2-yl)-[1,2,4]-oxadiazole (Example 3) was added to either Protein A Sepharose only, Protein A Sepharose plus anti-GST antibody, anti-GST/Protein A Sepharose plus GST only, or anti-GST/Protein A Sepharose plus GST-Tip47. After TBS washes, eluate was counted on a scintillation counter.\nFull-length Tip47 cDNA was cloned into the pGEX-4T-1, a glutathione S-transferase (GST) gene fusion system (Amersham, Piscataway, N.J.) using standard methods. Briefly, PCR primers to the 5′ and 3′ region of the gene were designed to contain restriction sites that allowed for the in frame cloning of Tip47 into the pGEX-4T-1 vector. Subsequent to sequence verification, the pGEX-Tip47 construct was transformed into the E.Coli BL-21 strain.\nIn order to perform binding studies on Tip47, GST-Tip47 was immobilized on Sepharose. To begin, 10 μg of anti-GST antibody (cat. # sc-459, rabbit polyclonal, Santa Cruz Biotechnology, Santa Cruz, Calif.) was incubated with 20 μl of protein A Sepharose (Zymed, South San Francisco, Calif.), in TBS (pH 8.0), total volume 200 μl, for 1 hour at room temperature. Beads were washed 3 times with TBS (pH 8.0). […] Eluates were added to 5 ml of scintillation cocktail and counted using ^3H protocol. […]"}, "[6]": {"tested_on": "cyclin D1", "experiment": "Realtime PCR of mRNA levels in compound-treated T47D cells", "type": "cell-based", "details": "5 μM, 18 h, versus DMSO, FIG. 2", "description": "FIG. 2: The effect of 5-(3-chlorothiophen-2-yl)-3-(5-chloro-pyridin-2-yl)-[1,2,4]-oxadiazole on mRNA levels of genes of interest. T47D cells were treated for 18 h with 5 μM of 5-(3-chlorothiophen-2-yl)-3-(5-chloro-pyridin-2-yl)-[1,2,4]-oxadiazole or DMSO and total RNA was then isolated. mRNA levels of TGFbeta, p21, cyclin D1, IGF2R, and IGFBP3 were quantitated using realtime PCR as fold change of treatment/control.\nFor cDNA synthesis and quantitative PCR, total RNA was extracted using the TRIzol reagent (Invitrogen Corporation, Carlsbad, Calif.) according to the manufacturer's instructions. Total RNA was quantitated, denatured, and electrophoresed in an agarose-formaidehyde gei to determine integrity of total RNA. 2 μg of total RNA was then used to make cDNA by reverse transcription using the Retroscript cDNA synthesis kit (Ambion Austin, Tex.) according to the manufacturer's instructions. Quantitative PCR was done by Sybrgreen incorporation using the Quantitect kit (Qiagen, Valencia, Calif.) on the LightCycler (Roche Molecular Biochemicals, Mannheim, Germany) using standard conditions. Data was normalized against the housekeeping gene, cyclophilin. The cells transfected with cyclophilin as a control was normalized against glyceraldehyde phosphate dehydrogenase (GAPD)."}},
  "data": [
    {"smiles": "[N-]=[N+]=Nc1ccc(-c2noc(-c3sccc3Cl)n2)cc1", "note": "[3-(4-Azidophenyl)-5-(3-chloro-thiophen-2-yl)-[1,2,4]-oxadiazole]", "values": [
      {"measurement": "Time to induction of apoptosis in cells upon binding to TIPRAIP", "setting": "[1]", "value": "24 to 48", "unit": "h"},
      {"measurement": "Activation of the caspase cascade and of apoptosis", "setting": "[2]", "value": "potent and highly efficacious activators of the caspase cascade"}
    ]},
    {"smiles": "[3H]c1cc(-c2noc(-c3sccc3Cl)n2)cc([3H])c1N=[N+]=[N-]", "note": "[Example 3, 3-(3,5 -Ditritium-4-azidophenyl)-5-(3-chloro-thiophen-2-yl)-[1,2,4]-oxadiazole]", "values": [
      {"measurement": "Binding to immunoprecipitated Tip47 from cell lysates", "setting": "[3]", "value": "binding to immunoprecipitated Tip47"},
      {"measurement": "Radiolabeled protein on 2-D gel autoradiography", "setting": "[4]", "value": "single radiolabeled spot"},
      {"measurement": "Binding to GST-Tip47 immobilized on α-GST-Protein A-Sepharose", "setting": "[5]", "value": "binding to GST-Tip47"}
    ]},
    {"smiles": "Clc1ccc(-c2noc(-c3sccc3Cl)n2)nc1", "note": "[compound A, 5-(3-chlorothiophen-2-yl)-3-(5-chloro-pyridin-2-yl)-[1,2,4]-oxadiazole]", "values": [
      {"measurement": "Gene expression profile: cyclin D1 mRNA level", "setting": "[6]", "value": "down regulation of cyclin D1"}
    ]}
  ]
}
